The values that follow come from patent US6416991B1, “Human cyclic nucleotide PDES” (Incyte Genomics, Inc., priority 1999, dated 2002).

One assay deals with PDE3. The following applies: read-out: Selective for PDE type (IC50): PDE3; cited from earlier work.
Assay [1] addresses T1, HSPDE10A1 (Homo sapiens, UniProt Q9HCR9). The assay is described as follows: Inhibition of HSPDE10A1 PDE activity, scintillation proximity assay with cGMP as substrate.
Experimental: (§1) 50 μl of 20 mM Tris-HCl pH 7.4 and 5 mM MgCl2 containing the required concentration of cyclic nucleotide was added to 50 μl of diluted enzyme (or no enzyme for background control) in 20 mM Tris-HCl pH 7.4, 5 mM MgCl2 and 2 mg/ml bovine serum albumin to initiate the reaction.
Reactions were initiated by the addition of substrate.
In assay [2] the target is T1, HSPDE10A1. The assay can be described thus: HSPDE10A1 enzyme kinetics (Km, Vmax) with cAMP and cGMP as substrates. The following applies: substrate 0.15-10 μM, Michaelis-Menten plot.
Experimental: Km and Vmax values for the enzyme activity with each substrate were calculated from a Michaelis-Menten plot using the “Fit Curve” Microsoft Excel extension program.
as §1
Data points in the linear part of the reaction were used to calculate Km and Vmax from a Michaelis-Menten plot using the ‘Fit Curve’ program of EXCEL software (Microsoft, Redmond Wash.).
A further assay relates to PDEs (non-selective). The following applies: range observed for other PDEs; read-out: Selective for PDE type (IC50): non-selective; cited from earlier work.
The next assay concerns PDE4. The conditions noted are these: read-out: Selective for PDE type (IC50): PDE4; cited from earlier work.

T1 sequence (Q9HCR9 445-933): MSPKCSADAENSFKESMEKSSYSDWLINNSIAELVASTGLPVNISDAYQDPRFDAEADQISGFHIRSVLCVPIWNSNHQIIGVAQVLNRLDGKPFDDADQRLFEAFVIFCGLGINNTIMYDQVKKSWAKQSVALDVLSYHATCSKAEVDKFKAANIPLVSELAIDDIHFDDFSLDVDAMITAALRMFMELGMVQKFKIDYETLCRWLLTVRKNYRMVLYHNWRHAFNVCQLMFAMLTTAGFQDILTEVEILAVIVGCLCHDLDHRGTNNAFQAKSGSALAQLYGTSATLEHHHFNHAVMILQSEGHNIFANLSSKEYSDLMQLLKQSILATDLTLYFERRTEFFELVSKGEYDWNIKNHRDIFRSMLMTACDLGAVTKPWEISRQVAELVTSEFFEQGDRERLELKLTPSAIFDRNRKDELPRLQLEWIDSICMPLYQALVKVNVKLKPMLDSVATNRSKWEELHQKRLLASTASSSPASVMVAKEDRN

In general, IC50 refers to the concentration that inhibits the measured activity by half. For `Cc1[nH]c(=O)c(C#N)cc1-c1ccncc1` [Milrinone], the IC50 with PDE3 was 1 µM; at HSPDE10A1 [1] it was greater than 200 µM.
For orientation: Km means the concentration of substrate that gives half-maximal velocity. On to `Nc1nc2c(ncn2[C@@H]2O[C@@H]3COP(=O)(O)O[C@H]3[C@H]2O)c(=O)[nH]1` [cGMP], for which the Km at HSPDE10A1 [2] (read-out: Km for HSPDE10A1) worked out at 0.52 µM. Moreover, the “Vmax (rate of hydrolysis by HSPDE10A1)” value on HSPDE10A1 [2] stood at 0.21 μmole/min/ml enzyme.
Take `CC(C)Cn1c(=O)n(C)c(=O)c2[nH]cnc21` [IBMX, 3-isobutyl1-methylxanthine]: the IC50 is 2 to 50 µM in the assay on PDEs (non-selective) and 40 µM at HSPDE10A1 [1].
For `COc1ccc(C2CNC(=O)C2)cc1OC1CCCC1` (centres unmarked) [Rolipram], the figures for the IC50 at HSPDE10A1 [1] and in the assay on PDE4 were 160 µM and […], respectively.
